Reference: patent US8492561B2, “Azetidine derivatives as sphingosine 1-phosphate (S1P) receptor modulators” (Allergan, Inc., priority 2010, dated 2013)

What follows are molecules tested against T1, human S1P1 receptor (Homo sapiens, UniProt P21453) (assay: GTP γ35S binding assay for S1P1 activity). Conditions: membranes of cells stably expressing the S1P1 receptor, agonist potency.
T1 construct: expressed in transfected cells; membranes from cells stably expressing the S1P1 receptor
Format: biochemical
Protocol: Compounds were synthesized and tested for S1P1 activity using the GTP γ^35S binding assay. These compounds may be assessed for their ability to activate or block activation of the human S1P1 receptor in cells stably expressing the S1P1 receptor.
GTP γ^35S binding was measured in the medium containing (mM) HEPES 25, pH 7.4, MgCl2 10, NaCl 100, dithiothreitol 0.5, digitonin 0.003%, 0.2 nM GTP γ^35S, and 5 μg membrane protein in a volume of 150 μl. Test compounds were included in the concentration range from 0.08 to 5,000 nM unless indicated otherwise. Membranes were incubated with 100 μM 5′-adenylylimmidodiphosphate for 30 min, and subsequently with 10 μM GDP for 10 min on ice. Drug solutions and membrane were mixed, and then reactions were initiated by adding GTP γ^35S and continued for 30 min at 25° C. Reaction mixtures were filtered over Whatman GF/B filters under vacuum, and washed three times with 3 mL of ice-cold buffer (HEPES 25, pH7.4, MgCl2 10 and NaCl 100). Filters were dried and mixed with scintillant, and counted for ^35S activity using a β-counter. Agonist-induced GTP γ^35S binding was obtained by subtracting that in the absence of agonist. Binding data were analyzed using a non-linear regression method. In case of antagonist assay, the reaction mixture contained 10 nM S1P in the presence of test antagonist at concentrations ranging from 0.08 to 5000 nM.

T1 sequence (P21453 whole entry): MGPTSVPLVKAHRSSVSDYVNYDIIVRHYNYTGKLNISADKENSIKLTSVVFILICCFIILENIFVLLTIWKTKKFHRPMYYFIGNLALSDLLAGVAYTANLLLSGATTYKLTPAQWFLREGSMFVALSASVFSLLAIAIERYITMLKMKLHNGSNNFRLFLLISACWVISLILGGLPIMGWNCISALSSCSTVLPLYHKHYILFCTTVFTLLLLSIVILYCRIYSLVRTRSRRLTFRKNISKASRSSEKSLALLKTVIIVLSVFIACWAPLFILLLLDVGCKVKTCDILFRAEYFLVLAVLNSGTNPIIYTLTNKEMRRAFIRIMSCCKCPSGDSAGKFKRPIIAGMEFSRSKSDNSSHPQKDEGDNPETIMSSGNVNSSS

| Structure (SMILES) | EC50 |
| --- | --- |
| Cc1ccc(CC(C#Cc2ccc(CN3CC(C(=O)O)C3)cc2)c2cccc(Cl)c2)cc1C (stereo not shown) [Compound 1, 1-{4-[3-(3-chlorophenyl)-4-(3,4-dimethylphenyl)but-1-yn-1 yl]benzyl}azetidine-3-carboxylic acid] | 16 nM |
| Cc1ccc(CC(C#Cc2ccc(CN3CC(C(=O)O)C3)cc2C)c2cccc(Cl)c2)cc1C (stereo not shown) [Compound 2, 1-{4-[3-(3-Chloro-phenyl)-4-(3,4-dimethyl-phenyl)-but-1-ynyl]-3-methyl-benzyl}-azetidine-3-carboxylic acid] | 607 nM |
| Cc1ccc(CC(C#Cc2ccc(CN3CC(C(=O)O)C3)cc2)c2ccc(Cl)cc2)cc1C (stereo not shown) [Compound 4, 1-{4-[3-(4-chlorophenyl)-4-(3,4-dimethylphenyl)but-1-yn-1-yl]benzyl}azetidine-3-carboxylic acid] | 128 nM |
| O=C(O)C1CN(Cc2ccc(C#CC(Cc3ccc(Cl)c(Cl)c3)c3cccc(F)c3)cc2)C1 (stereo not shown) [Compound 5, 1-{4-[4-(3,4-Dichloro-phenyl)-3-(3-fluoro-phenyl)-but-1-ynyl]-benzyl}-azetidine-3-carboxylic acid] | 310 nM |
| Cc1cccc(C(C#Cc2ccc(CN3CC(C(=O)O)C3)cc2)Cc2ccc(C)c(C)c2)c1 (stereo not shown) [Compound 7, 1-{4-[4-(3,4-dimethylphenyl)-3-(3-methylphenyl)but-1-yn-1-yl]benzyl}azetidine-3-carboxylic acid] | 91.9 nM |

The remaining molecules from weak to strong by EC50, led by results:

| EC50 | Structure (SMILES) |
| --- | --- |
| 58.7 nM | Cc1ccc(CC(/C=C/c2ccc(CN3CC(C(=O)O)C3)cc2)c2cccc(F)c2)cc1C (stereo not shown) [Compound 6, 1-{4-[(1E)-4-(3,4-dimethylphenyl)-3-(3-fluorophenyl)but-1-en-1-yl]benzyl}azetidine-3-carboxylic acid] |
| 42.3 nM | COc1cccc(C(C#Cc2ccc(CN3CC(C(=O)O)C3)cc2)Cc2ccc(C)c(C)c2)c1 (stereo not shown) [Compound 3, 1-{4-[4-(3,4-dimethylphenyl)-3-(3-methoxyphenyl)but-1-yn-1-yl]benzyl}azetidine-3-carboxylic acid] |
